One data set has as its system SJ-GBM2 cells. Kind of data set: cells. The conditions noted are these: Homo sapiens, 24 h, read-out: IC50 (cell viability).
For a further data set, the system named is miR21. The data set is described as follows: miR21 expression by qPCR in treated cells. The format is cell-based, human.
Another data set concerns miR-20a. The data set is described as follows: miR-20a expression levels by stem loop qPCR in treated cells. The format is cell-based, human. The conditions noted are these: any of the cell lines tested; administered alone, 10 nM, 24 hr. An excerpt: Micro RNA enriched fraction was extracted using the miRNeasy Mini Kit (Qiagen, Catalog #217004) following the manufacturer's instructions. Stem loop real-time qPCR was used to analyze miRNA expression. We designed miR-20a stem loop RT primers and amplification primers according to a previously described method 79. cDNA was synthesized from extracted RNA using unique stem loop RT primers. The sequence of the stem loop primer for miR-20a was 5′-[…]-3′ (SEQ ID NO:7). Reverse transcriptase reactions contained the following reagents: 10 ng of RNA sample, 60 nM stem-loop RT primer, 1×RT buffer, 0.25 mM dNTP, and 4 U/μl reverse transcriptase. Reactions were performed by incubation at 16° C. for 30 min, 42° C. for 30 min and 85° C. for 5 min. Real-time PCR (7300 Real time PCR Systems, Applied Biosystems, CA) was performed using the specific forward primer for miR-20a (5′-[…]-3′ (SEQ ID NO:8)) and a universal reverse primer (5′-GTGCA GGGTC CGAGGT-3′ (SEQ ID NO:9)). The 20-μl PCR mixture included 1×SYBR Premix (Invitrogen), 2 μl of RT products and each forward and reverse primer at 10 nM. Reactions were performed by incubation in a 96-well plate at 95° C. for 30 sec, followed by 35 cycles of 95° C. for 30 sec and 60° C. for 30 sec. U6 was used as an internal control to normalize the level of target miRNAs. The results were verified by performing PCR using M13 modified forward and reverse primers specific to stem loop sequence. The PCR products were visualized in 2% agarose gels and DNA-sequence was confirmed. Human tumor and serum samples were obtained from patients who had signed informed consent and the institutional review board approval was obtained in Pediatric Brain Tumor Consortium (PBTC-041) participating sites.

Data set [1] relates to SJ-GBM2, CHLA-200, LN-229 and astrocytes. The data set is described as follows: CCK-8 cell viability assay, set of cell lines tested. The note with it: component alone; 24 hr. The data set is classed as cell-based, human. On the technique in general: Tetrazolium dyes change colour on reduction, which living cells bring about.
Description: Cell viability was evaluated by a CCK-8 assay (Dojindo, Japan). Cells were seeded at a density of 4,000 cells per well in 100 μl of growth medium in 96-well plates and grown overnight. Then, the cells were exposed to antisense miR-20a alone, p28 alone or negative control or AmiR20-p28 over a range of concentrations and incubated for 24 hr. According to the manufacturer's instructions, 10 μl of CCK-8 solution was added to each well, followed by incubation for 1 hr at 37° C. The absorbance at 450 nm was determined by a multiplate reader.
Cell viability (%)=Abs(sample)−Abs(blank)/Abs(no treatment)−Abs(blank)×100
The subject of data set [2] is SJ-GBM2 cells, CHLA-200 cells and astrocytes. Kind of data set: Cellular entry by confocal microscopy. The format is cell-based, human. The conditions noted are these: 20 μM Alexa Fluor labeled, 2 hr, 37° C.; pGBM cells vs normal astrocytes. The protocol:
p28 or AmiR20-p28 were dissolved in PBS mixed with Alexa Fluor 568 dye (Invitrogen) at a 1:2 peptide/dye ratio 37. Sodium bicarbonate (pH 8.5) was added and incubated at 4° C. with continuous stirring. Alexa Fluor 568 labeled p28 and AmiR20-p28 were dialyzed against cold-PBS using Slide-A-Lyzer Dialysis Cassettes (Pierce Biotechnology). Similarly, p28 was labeled with ICG as described previously.
SJ-GBM2 cells, CHLA-200 cells and astrocytes (2×10^4 cells/well) were cultured on glass slides placed in 24-well plates. After overnight culture, the cells were washed with PBS and incubated with 20 μM Alexa Fluor 568-labeled p28 peptide in medium (5% FBS and without phenol red) for 2 hr at 37° C. Cells were fixed with 2% formalin for 10 min. After washing, slides were prepared and mounted with Vectashield with DAPI (Vector Laboratories, Catalog #94010). Slides were examined by an LSM 710 confocal laser scanning microscope (Zeiss). Images were processed using ZEN software (ZEISS ZEN Lite). As for a GSC marker, the slides were first incubated with Alexa Fluor 568-labeled AmiR20-p28 for 2 hr at 37° C. Cells were fixed with 2% formalin for 10 min. After washing, slides were incubated with blocking buffer for 1 hr at room temperature, followed by consecutive staining with anti-CD133 antibody (1:500, R&D Systems FAB11331G). Slides were washed and mounted with Vectashield containing DAPI. […]

The conditions of data set [3]: human, in vivo; cited from earlier work.

Data on three compounds can be found in patent publication US20260193647A1, “MIRNA-BASED CANCER THERAPY WITH A TUMOR-NAVIGATING PEPTIDE” (The Board of Trustees of the Universities of Illinois, priority 2022, published 2026).

Ends that are not written are not given here.

In general, IC50 refers to the concentration that inhibits the measured activity by half. Regarding `Cn1nnc2c(C(N)=O)ncn2c1=O` [TMZ, temozolomide], in the data set with SJ-GBM2 cells, the IC50 is about 600 µM.

For “AmiR21-p28: cell-penetrating peptide p28 chemically conjugated to antisense-miR21 (LSTAADMQGVVTDGMASGLDKDYLKPDD; also: chemically conjugated to antisense miR-21, site not given here; UniProt P00282 70-97, looked up, fragment)”, in the data set on miR21 (pGBM and aGBM cells, Ten nM), the “endogenous miR21” value was “significantly reduced the endogenous miR21”.

As to “p28: CPP derived from Pseudomonas aeruginosa azurin that preferentially enters cancer cells; carrier component tested alone [reference compound]”, in the data set on miR-20a, the “inhibitory effect on miR-20a expression” value was “did not have a significant inhibitory effect”. In addition, the “inhibitory effect on cell viability” value in data set [1] was “neither p28 nor AmiR20, alone had an inhibitory effect on cell viability”. Also, the “cellular entry (confocal images)” value in data set [2] is “preferentially penetrated”. In addition, in the data set on miR21 (any cell lines tested, component alone), the “reduction of miR21” value is listed as “did not induce a significant reduction of miR21”. The tolerability in patients entry in data set [3] is listed as “well tolerated without apparent adverse effects, toxicity, or immunogenicity”.
